What was measured:
[1] = system: human airway epithelial cells (HAECs); experiment: High-throughput sequencing (HTS) of miRNAs at four stages of differentiation of HAECs; conditions: for Modulation (ratio of the level of intensity of expression in log2 in two stages of differentiation) measured by high-throughput sequencing, D7 − D0 / Modulation (ratio of the level of intensity of expression in log2 in two stages of differentiation) measured by high-throughput sequencing, FC − D7 / Modulation (ratio of the level of intensity of expression in log2 in two stages of differentiation) measured by high-throughput sequencing, WD − D0 / Modulation (ratio of the level of intensity of expression in log2 in two stages of differentiation) measured by high-throughput sequencing, WD − FC / Level of intensity of expression in log2 measured by high-throughput sequencing, D0 / Level of intensity of expression in log2 measured by high-throughput sequencing, D7 / Level of intensity of expression in log2 measured by high-throughput sequencing, FC / Level of intensity of expression in log2 measured by high-throughput sequencing, WD: Table VI; for Level of intensity of expression in log2 At the differentiated stage (WD) measured in HTS: healthy human airway epithelial tissue; for Level of intensity of expression in log2 measured by high-throughput sequencing, D0: stage D0; for Level of intensity of expression in log2 measured by high-throughput sequencing, D7: stage D7; for Level of intensity of expression in log2 measured by high-throughput sequencing, FC: stage FC; for Level of intensity of expression in log2 At the differentiated stage (WD) measured in HTS / Level of intensity of expression in log2 measured by high-throughput sequencing, WD: stage WD
Summary of the method: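 Cells at four air-liquid interface differentiation stages were lysed and total RNA with miRNAs purified. Adaptor Mix A or B ligation (16° C, 2-16 h) allowed 5′ or 3′ end sequencing. Abundance cut-off was 1% of total miRNAs in at least one stage.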

[2] = system: human airway epithelial cells (HAECs); experiment: Agilent miRNA chips, miRNA expression at four stages of differentiation of HAECs; conditions: for Modulation (ratio of the level of intensity of expression in log2 in two stages of differentiation) measured with the Agilent chips, D7 − D0 / Modulation (ratio of the level of intensity of expression in log2 in two stages of differentiation) measured with the Agilent chips, FC − D7 / Modulation (ratio of the level of intensity of expression in log2 in two stages of differentiation) measured with the Agilent chips, WD − D0 / Modulation (ratio of the level of intensity of expression in log2 in two stages of differentiation) measured with the Agilent chips, WD − FC / Level of intensity of expression in log2 measured with the Agilent chips, D0 / Level of intensity of expression in log2 measured with the Agilent chips, D7 / Level of intensity of expression in log2 measured with the Agilent chips, FC / Level of intensity of expression in log2 measured with the Agilent chips, WD: Table VI; for Modulation (ratio of the level of intensity of expression in log2 at two stages of differentiation), FC − D7 / Modulation (ratio of the level of intensity of expression in log2 at two stages of differentiation), WD − FC: Agilent miRNA chips, Table V; for Level of intensity of expression in log2 measured with the Agilent chips, D0: stage D0; for Level of intensity of expression in log2 measured with the Agilent chips, D7: stage D7; for Level of intensity of expression in log2 measured with the Agilent chips, FC: stage FC; for Level of intensity of expression in log2 measured with the Agilent chips, WD: stage WD
Summary of the method: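 Expression read from hybridization signals on Human miRNA Microarray v2 arrays spanning all miRBase v.12.0 human miRNAs plus 89 viral ones. Samples are RNA from the same patients profiled by sequencing, labelled with the standard kit.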

[3] = system: basal cells and pyramidal cells of the airway epithelium; experiment: miRNA expression in sorted basal cells versus pyramidal cells (ciliated + secretory), HTS and Agilent chips; set-up: species or system human; conditions: for Modulation of expression of the miRNAs in pyramidal cells (323(−)) relative to basal cells 323(+): HTS and Agilent chips; for Intensity of the level of expression in log2 in pyramidal cells (323(−)): pyramidal cells (ciliated + secretory)
Summary of the method: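 Read-out is miRNA profiling of total RNA, by Agilent chips or by high-throughput sequencing, in two sorted populations. These were basal cells (CD151+/TF+) and pyramidal ciliated/secretory cells (CD151−/TF−) from airway epithelium of 3 donors.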

Row | Substance | Modulation (ratio of the level of intensity of expression in log2 in two stages of differentiation) measured by high-throughput sequencing, D7 − D0 [1] [log2] | Modulation (ratio of the level of intensity of expression in log2 in two stages of differentiation) measured by high-throughput sequencing, FC − D7 [1] [log2] | Modulation (ratio of the level of intensity of expression in log2 in two stages of differentiation) measured by high-throughput sequencing, WD − D0 [1] [log2] | Modulation (ratio of the level of intensity of expression in log2 in two stages of differentiation) measured by high-throughput sequencing, WD − FC [1] [log2] | Level of intensity of expression in log2 At the differentiated stage (WD) measured in HTS [1] [log2] | Level of intensity of expression in log2 measured by high-throughput sequencing, D0 [1] [log2] | Level of intensity of expression in log2 measured by high-throughput sequencing, D7 [1] [log2] | Level of intensity of expression in log2 measured by high-throughput sequencing, FC [1] [log2] | Level of intensity of expression in log2 measured by high-throughput sequencing, WD [1] [log2] | Modulation (ratio of the level of intensity of expression in log2 in two stages of differentiation) measured with the Agilent chips, D7 − D0 [2] [log2] | Modulation (ratio of the level of intensity of expression in log2 in two stages of differentiation) measured with the Agilent chips, FC − D7 [2] [log2] | Modulation (ratio of the level of intensity of expression in log2 in two stages of differentiation) measured with the Agilent chips, WD − D0 [2] [log2] | Modulation (ratio of the level of intensity of expression in log2 in two stages of differentiation) measured with the Agilent chips, WD − FC [2] [log2] | Level of intensity of expression in log2 measured with the Agilent chips, D0 [2] [log2] | Level of intensity of expression in log2 measured with the Agilent chips, D7 [2] [log2] | Level of intensity of expression in log2 measured with the Agilent chips, FC [2] [log2] | Level of intensity of expression in log2 measured with the Agilent chips, WD [2] [log2] | Modulation of expression of the miRNAs in pyramidal cells (323(−)) relative to basal cells 323(+) [3] | Intensity of the level of expression in log2 in basal cells (323(+)) [3] [log2] | Intensity of the level of expression in log2 in pyramidal cells (323(−)) [3] [log2] | also measured
1 | hsa-miR-365: human miRNA, SEQ ID No. 41 (UAAUGCCCCUAAAAAUCCUUAU; expressed or natural sequence; listed as Homo sapiens) | −0.39 | 0.00 | −0.39 | 0.00 | 2.78 | 0.41 | 0.01 | 0.01 | 0.01 | −0.02 | −1.21 | −1.18 | 0.05 | 8.44 | 8.41 | 7.21 | 7.25 | −0.99 | 4.83 | 3.84 | Modulation (ratio of the level of intensity of expression in log2 at two stages of differentiation), FC − D7 [2]: −1.21 log2; Modulation (ratio of the level of intensity of expression in log2 at two stages of differentiation), WD − FC [2]: 0.05 log2
2 | hsa-miR-374a: human miRNA, SEQ ID No. 42 (UUAUAAUACAACCUGAUAAGUG; expressed or natural sequence; listed as Homo sapiens) | −0.33 | 1.74 | 2.16 | 0.74 | 11.87 | 0.62 | 0.30 | 2.04 | 2.78 | 1.41 | −0.54 | 0.79 | −0.08 | 7.04 | 8.45 | 7.91 | 7.83 | −1.04 | 4.26 | 3.22 | Modulation (ratio of the level of intensity of expression in log2 at two stages of differentiation), FC − D7 [2]: −0.54 log2; Modulation (ratio of the level of intensity of expression in log2 at two stages of differentiation), WD − FC [2]: −0.08 log2
3 | hsa-miR-378: human miRNA, SEQ ID No. 43 (ACUGGACUUGGAGUCAGAAGG; expressed or natural sequence; listed as Homo sapiens) | 2.15 | −0.26 | 1.50 | −0.39 | 11.70 | 10.37 | 12.53 | 12.26 | 11.87 | 3.23 | −0.81 | 2.16 | −0.26 | 4.38 | 7.61 | 6.80 | 6.54 | −2.43 | 4.11 | 1.68 | Modulation (ratio of the level of intensity of expression in log2 in two stages of differentiation), D7 − D0 ([1]; HTS): 2.15 log2; Modulation (ratio of the level of intensity of expression in log2 in two stages of differentiation), FC − D7 ([1]; HTS): −0.26 log2; Modulation (ratio of the level of intensity of expression in log2 in two stages of differentiation), WD − FC ([1]; HTS): −0.39 log2; Abundance (%), D0 ([1]; HTS, ALI-D0): 0.29%; Abundance (%), D7 ([1]; HTS, ALI-D7): 1.30%; Abundance (%), FC ([1]; HTS, ALI-FC): 1.04%; Abundance (%), WD ([1]; HTS, ALI-WD): 0.61%
4 | hsa-miR-425: human miRNA, SEQ ID No. 44 (AAUGACACGAUCACUCCCGUUGA; expressed or natural sequence; listed as Homo sapiens) | 0.42 | 0.74 | 1.12 | −0.04 | 9.53 | 10.58 | 11.01 | 11.75 | 11.70 | 1.59 | 0.19 | 1.57 | −0.21 | 6.61 | 8.21 | 8.39 | 8.18 | 0.70 | 4.52 | 5.22 | Modulation (ratio of the level of intensity of expression in log2 at two stages of differentiation), FC − D7 [2]: 0.19 log2; Modulation (ratio of the level of intensity of expression in log2 at two stages of differentiation), WD − FC [2]: −0.21 log2

— patent publication US9023821B2, “Use of MicroRNA for treating diseases associated with a dysfunction of the cilia in multiciliated epithelial cells” (Centre National de la Recherche Scientifique, priority 2009, dated 2015)
